PubChem BioAssay (NCI)
Several values for one entry are separate records, joined by “and”; a condition that tells them apart may be missing. Equal values may be shown once.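 Method: 48-hour compound exposure of cells in 96-well plates, five concentrations, linear interpolation of endpoints. GI50: concentration for 50% inhibition of growth. TGI: concentration producing complete growth inhibition.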

Key:
Experiment in all cases: NCI-60 cell line screen, 48 h
COLO 205 colon = test system: COLO 205 colon
HCC-2998 colon = test system: HCC-2998 colon
HCT-116 colon = test system: HCT-116 colon
HL-60(TB) leukemia = test system: HL-60(TB) leukemia
M14 melanoma = test system: M14 melanoma
MCF7 breast = test system: MCF7 breast
NCI/ADR-RES ovarian = test system: NCI/ADR-RES ovarian
RPMI-8226 leukemia = test system: RPMI-8226 leukemia
SK-MEL-2 melanoma = test system: SK-MEL-2 melanoma
SW-620 colon = test system: SW-620 colon

SMILES | GI50 (COLO 205 colon) | TGI (COLO 205 colon) [µM] | GI50 (HCC-2998 colon) | TGI (HCC-2998 colon) | GI50 (HCT-116 colon) | TGI (HCT-116 colon) [µM] | GI50 (HL-60(TB) leukemia) | TGI (HL-60(TB) leukemia) [µM] | GI50 (M14 melanoma) | TGI (M14 melanoma) | GI50 (MCF7 breast) | TGI (MCF7 breast) | GI50 (NCI/ADR-RES ovarian) [µM] | TGI (NCI/ADR-RES ovarian) [µM] | GI50 (RPMI-8226 leukemia) [µM] | TGI (RPMI-8226 leukemia) [µM] | GI50 (SK-MEL-2 melanoma) | TGI (SK-MEL-2 melanoma) | GI50 (SW-620 colon) | TGI (SW-620 colon)
O=C(O)c1ccc(C(=O)O)c(C(=O)O)c1.[NH-]C1CCCCC1[NH-].[Pt+2] | 3.73 µM | 40.7 | 13.4 µM | 48.7 µM | 1.07 µM | 47.3 | 0.735 µM and 4.08 µM | 18.8 | 9.61 µM | 37.4 µM | 2.3 µM | 31.9 µM | 3.56 | 60.5 | 0.581 | 48.9 | 14.3 µM | 61.4 µM | 0.43 µM | 57.9 µM
O=C(/C=C/c1cccc(S(=O)(=O)Nc2ccccc2)c1)NO | 0.353 µM and 0.118 µM |  | 0.519 µM and 0.258 µM | 2.48 µM and 1.91 µM | 0.206 µM and 0.0391 µM | 1.18 |  | 29.8 | 0.451 µM and 0.441 µM | 12.9 µM and 12.5 µM | 0.384 µM and 0.157 µM | > 100 µM and 10.4 µM |  | 6.51 | 0.248 |  | 2.34 µM and 5.73 µM | 15.6 µM and > 71.2 µM | 0.227 µM and 0.0308 µM | 9.27 µM and > 47.1 µM
CCOc1cc(/C=C/C(=O)C(C(=O)/C=C/c2ccc(OC(=O)CNc3nnc(C)s3)c(OCC)c2)C(=O)CNc2nnc(C)s2)ccc1OC(=O)CNc1nnc(C)s1 | 1.7 µM | 3.54 | 1.69 µM | 3.33 µM | 0.952 µM | 4.42 | 0.554 µM | 3.47 | 2.4 µM | 10 µM | 0.317 µM | 2.28 µM | 3.51 | > 71.2 | 0.34 | > 100 | 2.02 µM | 5 µM | 1.18 µM | 2.74 µM
NC(=O)CCc1ccccc1Oc1nccc(-c2c(-c3ccc(F)cc3)ncn2C2CCNCC2)n1 | > 25 µM | > 25 | > 25 µM | > 25 µM | > 25 µM | > 25 | > 25 µM | > 25 | > 25 µM | > 25 µM | > 25 µM | > 25 µM | > 25 | > 25 | > 25 | > 25 | > 25 µM | > 25 µM | > 25 µM | > 25 µM
O=C1/C(=C\c2ccccc2)CN(C(=O)c2ccccc2)C/C1=C\c1ccccc1 | 2.72 µM | 7.01 | 1.89 µM | 3.48 µM | 0.321 µM | 1.1 | 4.29 µM | 52.7 | 2.1 µM | 4.79 µM | 0.39 µM | 1.69 µM | 3.69 | 37.6 | 0.238 | 0.747 | 3.5 µM | 8.96 µM | 1.47 µM | 3.04 µM
CN(CSc1ccc(Cl)cc1)c1ccc(CSc2ccc(Cl)cc2)cc1 | 3.59 µM | 13.6 | 4.81 µM | 18.3 µM | 3.06 µM | 11.9 | 1.57 µM | 32 | 4.09 µM | 14.9 µM | 3.17 µM | 18.5 µM | 8 | 30.1 | 2.11 | > 100 | 14.2 µM | 36.2 µM | 3.96 µM | 15.9 µM
